According to PubChem BioAssay (NCI):
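Here, GI50 denotes the concentration required for 50% inhibition of growth. Definition used: TGI = concentration required for complete inhibition of growth.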

Tests used:
Assay in all cases: NCI tumour cell line growth inhibition, 384-well format
[1] = test system: 786-0 renal
[2] = test system: A498 renal
[3] = test system: A549 NSCLC
[4] = test system: ACHN renal
[5] = test system: BT-549 breast
[6] = test system: CAKI-1 renal
[7] = test system: CCRF-CEM leukemia
[8] = test system: COLO 205 colon
[9] = test system: DU-145 prostate
[10] = test system: EKVX NSCLC
[11] = test system: HCC-2998 colon
[12] = test system: HCT-116 colon
[13] = test system: HCT-15 colon
[14] = test system: HL-60(TB) leukemia
[15] = test system: HOP-62 NSCLC
[16] = test system: HOP-92 NSCLC
[17] = test system: HT29 colon
[18] = test system: IGROV1 ovarian
[19] = test system: K-562 leukemia
[20] = test system: KM12 colon
[21] = test system: LOX IMVI melanoma
[22] = test system: M14 melanoma
[23] = test system: MALME-3M melanoma
[24] = test system: MCF7 breast
[25] = test system: MDA-MB-231 breast
[26] = test system: MDA-MB-435 melanoma
[27] = test system: MDA-MB-468 breast
[28] = test system: MOLT-4 leukemia
[29] = test system: NCI-H226 lung
[30] = test system: NCI-H23 lung
[31] = test system: NCI-H322M lung
[32] = test system: NCI-H460 NSCLC
[33] = test system: NCI-H522 lung
[34] = test system: NCI/ADR-RES ovarian
[35] = test system: OVCAR-3 ovarian
[36] = test system: OVCAR-4 ovarian
[37] = test system: OVCAR-5 ovarian
[38] = test system: OVCAR-8 ovarian
[39] = test system: PC-3 prostate
[40] = test system: RPMI-8226 leukemia
[41] = test system: RXF 393 renal
[42] = test system: SF-268 CNS
[43] = test system: SF-295 CNS
[44] = test system: SF-539 CNS
[45] = test system: SK-MEL-2 melanoma
[46] = test system: SK-MEL-28 melanoma
[47] = test system: SK-MEL-5 melanoma
[48] = test system: SK-OV-3 ovarian
[49] = test system: SN12C renal
[50] = test system: SNB-19 CNS
[51] = test system: SNB-75 CNS
[52] = test system: SR leukemia
[53] = test system: SW-620 colon
[54] = test system: T-47D breast
[55] = test system: TK-10 renal
[56] = test system: U251 glioblastoma
[57] = test system: UACC-257 melanoma
[58] = test system: UACC-62 melanoma
[59] = test system: UO-31 renal

Compound: CC#C/C(=N\OC[C@H]1COCCN1)c1ccc2ncnc(Nc3ccc(OCc4cccc(F)c4)c(Cl)c3)c2c1
- GI50 [1]: 1.31 µM
- TGI [1]: 2.6 µM
- GI50 [2]: 1.13 µM
- TGI [2]: 2.34 µM
- GI50 [3]: 1.17 µM
- TGI [3]: 2.42 µM
- GI50 [4]: 0.523 µM
- TGI [4]: 1.99 µM
- GI50 [5]: 1.51 µM
- TGI [5]: 2.85 µM
- GI50 [6]: 1.12 µM
- TGI [6]: 2.34 µM
- GI50 [7]: 1.5 µM
- TGI [7]: 2.84 µM
- GI50 [8]: 1.96 µM
- TGI [8]: 3.38 µM
- GI50 [9]: 1.16 µM
- TGI [9]: 2.42 µM
- GI50 [10]: 1.27 µM
- TGI [10]: 2.54 µM
- GI50 [11]: 1.54 µM
- TGI [11]: 2.89 µM
- GI50 [12]: 1.66 µM
- TGI [12]: 3.05 µM
- GI50 [13]: 1.67 µM
- TGI [13]: 3.05 µM
- GI50 [14]: 2.23 µM
- TGI [14]: 3.69 µM
- GI50 [15]: 1.62 µM
- TGI [15]: 2.98 µM
- GI50 [16]: 0.981 µM
- TGI [16]: 2.18 µM
- GI50 [17]: 1.65 µM
- TGI [17]: 3.04 µM
- GI50 [18]: 0.261 µM
- TGI [18]: 1.87 µM
- GI50 [19]: 1.7 µM
- TGI [19]: 3.09 µM
- GI50 [20]: 1.76 µM
- TGI [20]: 3.16 µM
- GI50 [21]: 1.91 µM
- TGI [21]: 3.33 µM
- GI50 [22]: 1.95 µM
- TGI [22]: 3.37 µM
- GI50 [23]: 1.76 µM
- TGI [23]: 3.15 µM
- GI50 [24]: 1.5 µM
- TGI [24]: 2.85 µM
- GI50 [25]: 1.73 µM
- TGI [25]: 3.11 µM
- GI50 [26]: 1.89 µM
- TGI [26]: 3.31 µM
- GI50 [27]: 0.0557 µM
- TGI [27]: 0.368 µM
- GI50 [28]: 1.44 µM
- TGI [28]: 2.76 µM
- GI50 [29]: 1.8 µM
- TGI [29]: 3.38 µM
- GI50 [30]: 2.02 µM
- TGI [30]: 3.98 µM
- GI50 [31]: 0.102 µM
- TGI [31]: 1.23 µM
- GI50 [32]: 1.75 µM
- TGI [32]: 3.18 µM
- GI50 [33]: 0.0482 µM
- TGI [33]: 1.29 µM
- GI50 [34]: 1.49 µM
- TGI [34]: 4.02 µM
- GI50 [35]: 1.19 µM
- TGI [35]: 2.44 µM
- GI50 [36]: 1.28 µM
- TGI [36]: 2.55 µM
- GI50 [37]: 1.8 µM
- TGI [37]: 3.59 µM
- GI50 [38]: 1.37 µM
- TGI [38]: 2.67 µM
- GI50 [39]: 1.78 µM
- TGI [39]: 3.2 µM
- GI50 [40]: 0.959 µM
- TGI [40]: 2.42 µM
- GI50 [41]: 0.864 µM
- TGI [41]: 2.26 µM
- GI50 [42]: 1.62 µM
- TGI [42]: 3 µM
- GI50 [43]: 1.82 µM
- TGI [43]: 3.22 µM
- GI50 [44]: 1.59 µM
- TGI [44]: 2.95 µM
- GI50 [45]: 1.31 µM
- TGI [45]: 2.58 µM
- GI50 [46]: 1.77 µM
- TGI [46]: 3.16 µM
- GI50 [47]: 1.51 µM
- TGI [47]: 2.85 µM
- GI50 [48]: 0.246 µM
- TGI [48]: 3.42 µM
- GI50 [49]: 1.28 µM
- TGI [49]: 2.55 µM
- GI50 [50]: 1.67 µM
- TGI [50]: 3.04 µM
- GI50 [51]: 1.87 µM
- TGI [51]: 3.27 µM
- GI50 [52]: 0.393 µM
- TGI [52]: 1.23 µM
- GI50 [53]: 1.88 µM
- TGI [53]: 3.3 µM
- GI50 [54]: 1.02 µM
- TGI [54]: 2.41 µM
- GI50 [55]: 0.404 µM
- TGI [55]: 1.88 µM
- GI50 [56]: 1.88 µM
- TGI [56]: 3.31 µM
- GI50 [57]: 1.52 µM
- TGI [57]: 2.85 µM
- GI50 [58]: 1.65 µM
- TGI [58]: 3.02 µM
- GI50 [59]: 1.52 µM
- TGI [59]: 2.86 µM
